The assay deals with Ribosomal RNA A-site. Put plainly: Binding affinity of aminoglycoside to 16S ribosomal RNA A-site in Escherichia coli. It is filed as nucleic-acid assay.

SMILES strings stand for the structures.

As usually defined, the Kd is the equilibrium constant for the complex coming apart. The low end stands for tighter binding, the high end for weaker binding. On to `NC[C@@H]1O[C@H](O[C@H]2[C@@H](O)[C@H](O[C@@H]3[C@@H](O)[C@H](N)C[C@H](N)[C@H]3O[C@H]3O[C@H](CO)[C@@H](O)[C@H](O)[C@H]3N)O[C@@H]2CO)[C@H](N)[C@@H](O)[C@@H]1O` [PAROMOMYCIN], for which the Kd turned out to be 200 nM.

As for `NC[C@H]1O[C@H](O[C@H]2[C@H](O[C@@H]3O[C@H](CO)[C@@H](O)[C@H]3O)[C@@H](O)[C@H](N)C[C@@H]2N)[C@H](N)[C@@H](O)[C@@H]1O` [RIBOSTAMYCIN], the Kd amounted to 25000 nM.

For the compound `NC[C@H]1O[C@H](O[C@H]2[C@H](O)[C@@H](O)[C@H](N)C[C@@H]2N)[C@H](N)[C@@H](O)[C@@H]1O` [NEAMINE], the Kd turned out to be 7800 nM.

`NCCC(O)C(=O)N[C@@H]1C[C@H](N)[C@@H](O[C@H]2O[C@H](CN)[C@@H](O)[C@H](O)[C@H]2N)[C@@H](O[C@@H]2O[C@H](CO)[C@@H](O)[C@H]2O)[C@H]1O` (stereo partly drawn) [BUTIROSIN B] displayed a Kd of 27000 nM.

In turn, `NC[C@@H]1O[C@H](O[C@H]2[C@@H](O)[C@H](O[C@@H]3[C@@H](O)[C@H](N)C[C@H](N)[C@H]3O[C@H]3O[C@H](CN)[C@@H](O)[C@H](O)[C@H]3N)O[C@@H]2CO)[C@H](N)[C@@H](O)[C@@H]1O` [FRAMYCETIN] gave a Kd of 19 nM.

Take `NC[C@H]1O[C@H](O[C@H]2[C@H](O)[C@@H](O[C@H]3O[C@H](CO)[C@@H](O)[C@H](N)[C@H]3O)[C@H](N)C[C@@H]2N)[C@H](N)C[C@@H]1O` [TOBRAMYCIN]: binding was put at a Kd of 1500 nM.

Regarding `N[C@H]1[C@@H](O[C@H]2[C@H](O)[C@@H](O)[C@H](N)C[C@@H]2N)O[C@H](CO)[C@@H](O)[C@@H]1O` [PAROMAMINE], the Kd was less than 100000 nM.

Take `NCCC1C(CO)OC(OC2C(O)C(N)CC(N)C2OC2OC(CN)C(O)C(O)C2N)C1O` (stereo not drawn): binding was put at a Kd of 1700 nM.

`NCCCNCC[C@H]1[C@@H](O)[C@H](O[C@H]2[C@@H](O)[C@H](N)C[C@H](N)[C@H]2O[C@H]2O[C@H](CN)[C@H](O)[C@H](O)[C@H]2N)O[C@@H]1CO` displayed a Kd of 260 nM.

Turning to `NC[C@H]1O[C@H](O[C@H]2[C@@H](O[C@@H]3O[C@H](CO)[C@@H](O[C@@H]4O[C@H](CO)[C@H](O)[C@H](O)[C@H]4O)[C@H]3O)[C@@H](O)[C@H](N)C[C@@H]2N)[C@H](N)[C@H](O)[C@@H]1O`, the affinity, expressed as Kd, was 28000 nM.

In turn, `NC[C@@H]1O[C@@H](O[C@H]2[C@H](O)[C@@H](O[C@H]3O[C@H](CO)[C@@H](O)[C@H](N)[C@H]3O)[C@H](N)C[C@@H]2N)[C@@H](O)[C@H](O)[C@H]1O` [KANAMYCIN A] yielded a Kd of 18000 nM.

`NC[C@H]1O[C@H](O[C@H]2[C@H](O)[C@@H](O[C@H]3O[C@H](CO)[C@@H](O)[C@H](N)[C@H]3O)[C@H](N)C[C@@H]2N)[C@H](N)[C@@H](O)[C@@H]1O` [BEKANAMYCIN] came in with a Kd of 1400 nM.

With `NCC1OC(OC2C(N)CC(N)C(O)C2OC2OC(CO)C(OC3OC(CN)C(O)C(O)C3O)C2O)C(N)C(O)C1O` (stereo not drawn), the Kd turned out to be 700 nM.
